# Calls of active or inactive are those of the source.
# Tests used:
# [1] = Luminescence-based dose response cell-based high throughput screening assay for cytotoxic compounds using the IEC-6 intestinal epithelial cell line. [Related pubchem assays: 1858 (Summary AID.), 1825 (Counterscreen.), 1907 (Confirmation screen.)]; type: functional
# Paired box protein Pax-8 = Paired box protein Pax-8 (Homo sapiens, UniProt Q06710); experiment: inhibitors of PAX8-driven TPO luciferase reporter, dose response, RMG-I cells, cherry-pick (AID 687027); type: functional, cell-based;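 further: luciferase reporter driven by Pax8 target thyroperoxidase promoter measured by SteadyGlo luminescence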
# [2] = control 3'UTR Renilla luciferase suppression, dose response, counter-screen for Shn3 inhibitor project, cell-based, Clone20-Shn3RL, cherry-picked (AID 624133); type: functional
# [3] = Shn3 3'UTR reporter inhibitors, dose response, cell-based, Clone20 osteoblasts, firefly luciferase, cherry-picked (AID 624132); type: functional;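 further: firefly luciferase luminescence from reporter carrying the Shn3 3'UTR in osteoblasts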
# [4] = target: T1, Histone-lysine N-methyltransferase NSD2 (Homo sapiens, UniProt O96028); type: biochemical
# T1 sequence (O96028 whole entry): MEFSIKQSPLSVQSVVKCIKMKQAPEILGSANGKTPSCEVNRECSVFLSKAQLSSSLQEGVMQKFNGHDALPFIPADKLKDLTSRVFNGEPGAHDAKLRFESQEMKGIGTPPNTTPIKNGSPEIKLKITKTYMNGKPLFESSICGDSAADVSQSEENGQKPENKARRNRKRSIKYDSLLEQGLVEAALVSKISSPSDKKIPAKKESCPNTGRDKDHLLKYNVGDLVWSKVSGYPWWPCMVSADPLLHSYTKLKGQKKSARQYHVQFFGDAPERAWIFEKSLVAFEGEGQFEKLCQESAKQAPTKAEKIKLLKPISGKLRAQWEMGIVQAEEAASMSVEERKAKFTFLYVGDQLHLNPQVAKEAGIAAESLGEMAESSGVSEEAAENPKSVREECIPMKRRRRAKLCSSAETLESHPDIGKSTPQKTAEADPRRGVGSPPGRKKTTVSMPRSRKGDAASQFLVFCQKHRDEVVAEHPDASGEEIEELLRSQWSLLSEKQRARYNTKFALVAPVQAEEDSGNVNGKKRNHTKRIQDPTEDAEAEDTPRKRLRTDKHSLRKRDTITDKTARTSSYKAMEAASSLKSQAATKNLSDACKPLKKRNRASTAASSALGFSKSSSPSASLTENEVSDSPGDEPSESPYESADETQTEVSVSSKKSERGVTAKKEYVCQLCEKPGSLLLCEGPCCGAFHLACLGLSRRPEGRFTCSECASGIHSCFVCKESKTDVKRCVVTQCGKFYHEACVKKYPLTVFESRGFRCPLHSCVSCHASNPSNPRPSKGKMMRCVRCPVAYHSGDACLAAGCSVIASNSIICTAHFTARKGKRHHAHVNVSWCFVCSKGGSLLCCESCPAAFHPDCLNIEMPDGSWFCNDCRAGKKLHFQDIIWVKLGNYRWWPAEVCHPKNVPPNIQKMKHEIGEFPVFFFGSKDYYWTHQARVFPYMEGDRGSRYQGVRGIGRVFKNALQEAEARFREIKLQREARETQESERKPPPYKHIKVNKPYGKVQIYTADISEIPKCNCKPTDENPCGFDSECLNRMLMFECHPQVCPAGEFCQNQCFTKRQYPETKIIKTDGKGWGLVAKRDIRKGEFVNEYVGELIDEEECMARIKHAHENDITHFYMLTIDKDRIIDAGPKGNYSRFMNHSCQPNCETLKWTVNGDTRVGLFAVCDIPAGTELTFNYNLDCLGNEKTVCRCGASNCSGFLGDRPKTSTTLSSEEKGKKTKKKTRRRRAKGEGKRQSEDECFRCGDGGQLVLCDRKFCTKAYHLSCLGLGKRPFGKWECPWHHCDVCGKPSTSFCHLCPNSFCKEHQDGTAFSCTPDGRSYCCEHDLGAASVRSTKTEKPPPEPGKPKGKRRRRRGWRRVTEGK
# Caspase-3 = target: T2, Caspase-3 (Homo sapiens, UniProt P42574); type: functional;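 further: Dose-response selectivity test against caspase-3 for candidate inhibitors of sentrin-specific proteases (SENPs)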
# T2 sequence (P42574 whole entry): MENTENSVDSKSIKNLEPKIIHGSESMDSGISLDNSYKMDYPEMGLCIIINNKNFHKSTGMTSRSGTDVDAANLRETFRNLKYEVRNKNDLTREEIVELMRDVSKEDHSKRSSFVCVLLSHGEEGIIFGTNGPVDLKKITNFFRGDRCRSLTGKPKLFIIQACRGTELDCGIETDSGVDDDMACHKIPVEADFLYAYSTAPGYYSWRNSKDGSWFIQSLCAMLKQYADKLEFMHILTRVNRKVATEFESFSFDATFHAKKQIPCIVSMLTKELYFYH
# [5] = target: T3, Mannose-6-phosphate isomerase (Homo sapiens, UniProt P34949); experiment: human PMI inhibitors, high substrate, primary screen, biochemical, fluorescence intensity, high mannose 6-phosphate (AID 1220)
# T3 sequence (P34949 whole entry): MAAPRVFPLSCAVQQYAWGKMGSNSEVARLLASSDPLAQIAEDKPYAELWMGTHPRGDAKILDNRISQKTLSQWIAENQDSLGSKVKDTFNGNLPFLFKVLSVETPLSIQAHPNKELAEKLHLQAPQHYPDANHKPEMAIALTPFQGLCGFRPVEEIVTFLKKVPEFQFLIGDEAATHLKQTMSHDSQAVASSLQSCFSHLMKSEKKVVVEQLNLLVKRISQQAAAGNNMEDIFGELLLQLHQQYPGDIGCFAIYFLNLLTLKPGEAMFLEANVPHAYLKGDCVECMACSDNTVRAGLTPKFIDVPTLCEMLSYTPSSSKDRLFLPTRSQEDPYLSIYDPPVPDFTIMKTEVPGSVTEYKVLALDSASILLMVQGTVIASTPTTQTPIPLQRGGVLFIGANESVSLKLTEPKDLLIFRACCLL
# Chain of Paired box protein Pax-8 (Q06710 whole entry): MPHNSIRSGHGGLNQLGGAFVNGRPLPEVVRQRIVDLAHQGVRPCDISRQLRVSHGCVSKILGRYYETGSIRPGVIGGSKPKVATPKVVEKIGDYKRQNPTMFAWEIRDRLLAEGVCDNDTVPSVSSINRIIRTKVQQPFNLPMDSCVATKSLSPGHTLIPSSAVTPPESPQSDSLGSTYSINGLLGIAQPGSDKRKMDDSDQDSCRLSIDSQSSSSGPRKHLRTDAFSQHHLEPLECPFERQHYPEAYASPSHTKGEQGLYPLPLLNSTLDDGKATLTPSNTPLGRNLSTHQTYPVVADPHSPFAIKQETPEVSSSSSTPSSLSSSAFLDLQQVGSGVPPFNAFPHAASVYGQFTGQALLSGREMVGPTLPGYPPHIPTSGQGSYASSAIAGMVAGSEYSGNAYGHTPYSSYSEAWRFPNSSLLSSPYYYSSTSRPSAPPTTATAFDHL
Compound,IC50 [1],AC50 (Paired box protein Pax-8),AC50 [2],AC50 [3],AC50 [4],IC50 (Caspase-3),IC50 [5]
CC(=O)NC(c1ccc2ccccc2c1)c1ccc2cccnc2c1O (centres undefined),1050 nM (active),1890 nM (active),510 nM (active),422 nM (active),–,–,–
CCOC(=O)c1c(C)[nH]c2c1-c1ccccc1C(=O)C2=O,421 nM (active),1050 nM (active),1000 nM (active),496 nM (active),1330 nM (active),–,–
O=C(c1ccccc1)c1coc2c1C(=O)c1ccccc1C2=O,–,–,–,–,–,25700 nM (active),–
CCOC(=O)c1c(C)oc2c1c(/C=N/CCC(=O)O)c(O)c1ccccc12,–,–,–,–,1870 nM (active),–,> 50000 nM (not active)
COc1ccc2c(c1)CCC(/C=N/c1ccc3c(c1)OCO3)=C2O,–,–,–,–,–,65500 nM (active),15600 nM (active)
